{
  "source": "ChEMBL document CHEMBL1201862",
  "about": "“PubChem BioAssay data set” (2004)",
  "key": {"[1]": {"assay": "Luminescence Cell-Based Dose Retest to Confirm Inhibitors of Cancer Stem Cells. [Related pubchem assays (depositor defined):AID2717, AID2721]", "format": "functional", "conditions": "Homo sapiens"}, "[2]": {"biological_target": "Heat shock protein HSP 90-alpha (Homo sapiens, UniProt P07900)", "format": "functional, organism-based"}, "Insulin-degrading enzyme [3]": {"biological_target": "T1, Insulin-degrading enzyme (Homo sapiens, UniProt P14735)", "T1 sequence (P14735 whole entry)": "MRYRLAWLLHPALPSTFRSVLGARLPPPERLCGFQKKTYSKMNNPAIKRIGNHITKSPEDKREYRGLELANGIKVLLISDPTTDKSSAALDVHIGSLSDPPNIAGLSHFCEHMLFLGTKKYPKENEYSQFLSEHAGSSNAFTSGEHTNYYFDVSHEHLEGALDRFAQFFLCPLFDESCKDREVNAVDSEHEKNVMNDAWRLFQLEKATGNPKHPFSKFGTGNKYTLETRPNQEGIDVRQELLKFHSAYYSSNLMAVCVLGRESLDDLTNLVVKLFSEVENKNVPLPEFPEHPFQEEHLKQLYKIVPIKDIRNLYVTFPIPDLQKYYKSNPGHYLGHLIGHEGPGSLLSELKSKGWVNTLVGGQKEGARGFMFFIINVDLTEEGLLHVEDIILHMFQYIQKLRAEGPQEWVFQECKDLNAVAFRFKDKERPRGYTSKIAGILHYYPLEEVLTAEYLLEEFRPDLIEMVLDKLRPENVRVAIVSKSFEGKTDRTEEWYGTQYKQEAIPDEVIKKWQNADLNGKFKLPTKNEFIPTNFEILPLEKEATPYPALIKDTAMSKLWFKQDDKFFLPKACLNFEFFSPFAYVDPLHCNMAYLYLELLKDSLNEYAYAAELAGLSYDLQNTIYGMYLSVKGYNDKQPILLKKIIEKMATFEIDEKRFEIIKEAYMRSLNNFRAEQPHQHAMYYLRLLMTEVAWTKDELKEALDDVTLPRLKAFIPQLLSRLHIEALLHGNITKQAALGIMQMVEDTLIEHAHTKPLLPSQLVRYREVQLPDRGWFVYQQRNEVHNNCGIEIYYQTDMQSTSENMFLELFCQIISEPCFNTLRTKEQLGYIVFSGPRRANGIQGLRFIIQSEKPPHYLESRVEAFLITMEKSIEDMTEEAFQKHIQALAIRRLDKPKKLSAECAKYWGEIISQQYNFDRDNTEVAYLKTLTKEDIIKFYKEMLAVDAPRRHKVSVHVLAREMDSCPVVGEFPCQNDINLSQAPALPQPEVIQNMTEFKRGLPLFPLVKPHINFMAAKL", "assay": "activators of recombinant IDE enzyme, dose response, counter-screen for IDE activator project, biochemical, fluorescence polarization (AID 588681)"}, "Insulin-degrading enzyme [4]": {"biological_target": "T1, Insulin-degrading enzyme", "assay": "activators of endogenous IDE in HEK cells, dose response, cell-based, fluorescence polarization (AID 588439)", "format": "functional"}, "HEK293 [5]": {"test_system": "HEK293", "assay": "HEK cell cytotoxicity by LDH release, dose response, cytotoxicity control for IDE activator project, fluorescence, HEK cells (AID 588440);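 further: cytotoxicity by LDH release measuring loss of membrane integrity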", "format": "functional, cell-based", "conditions": "Homo sapiens"}, "HEK293 [6]": {"test_system": "HEK293", "assay": "optical interference in Abeta FP readout, dose response, artefact control for IDE activator project, biochemical, fluorescence polarization (AID 588442)", "format": "functional, cell-based", "conditions": "Homo sapiens"}, "[7]": {"assay": "ADAM10 inhibitors, peptide cleavage, dose response, biochemical, QFRET (AID 743254);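 further: EDANS fluorescence gain as the protease cuts the substrate; inhibitor potency against ADAM10 proteolytic activity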"}, "[8]": {"biological_target": "Disintegrin and metalloproteinase domain-containing protein 17 (Homo sapiens, UniProt P78536)", "sequence (P78536 whole entry, the tested form may be a part)": "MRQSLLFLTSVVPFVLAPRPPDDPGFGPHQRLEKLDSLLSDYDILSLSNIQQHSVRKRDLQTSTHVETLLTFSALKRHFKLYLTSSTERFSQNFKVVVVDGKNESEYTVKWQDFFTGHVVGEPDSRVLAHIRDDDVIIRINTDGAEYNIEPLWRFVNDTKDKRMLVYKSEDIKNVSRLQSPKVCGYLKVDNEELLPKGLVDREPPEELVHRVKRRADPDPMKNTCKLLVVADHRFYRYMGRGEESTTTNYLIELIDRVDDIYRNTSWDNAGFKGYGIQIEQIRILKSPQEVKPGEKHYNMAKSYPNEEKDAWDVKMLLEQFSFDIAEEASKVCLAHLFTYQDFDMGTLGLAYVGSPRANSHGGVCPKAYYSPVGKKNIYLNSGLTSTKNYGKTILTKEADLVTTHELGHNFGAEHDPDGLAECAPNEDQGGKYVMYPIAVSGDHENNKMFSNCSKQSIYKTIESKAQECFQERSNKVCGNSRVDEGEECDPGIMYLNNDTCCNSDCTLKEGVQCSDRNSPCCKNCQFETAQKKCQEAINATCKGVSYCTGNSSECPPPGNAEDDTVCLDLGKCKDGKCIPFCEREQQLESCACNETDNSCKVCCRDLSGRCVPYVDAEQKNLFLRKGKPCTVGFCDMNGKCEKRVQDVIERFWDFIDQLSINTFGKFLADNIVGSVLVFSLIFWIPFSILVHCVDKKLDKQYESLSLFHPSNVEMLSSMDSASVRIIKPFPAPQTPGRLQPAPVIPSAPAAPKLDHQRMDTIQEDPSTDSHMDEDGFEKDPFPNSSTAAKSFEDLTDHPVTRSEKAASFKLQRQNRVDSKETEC", "assay": "ADAM17 protease inhibitors, dose response, counter-screen for ADAM10 exosite inhibitor project, biochemical, quenched FRET substrate (AID 743253)"}, "[9]": {"biological_target": "Glucose-6-phosphate 1-dehydrogenase (Homo sapiens, UniProt P11413)", "sequence (P11413 whole entry)": "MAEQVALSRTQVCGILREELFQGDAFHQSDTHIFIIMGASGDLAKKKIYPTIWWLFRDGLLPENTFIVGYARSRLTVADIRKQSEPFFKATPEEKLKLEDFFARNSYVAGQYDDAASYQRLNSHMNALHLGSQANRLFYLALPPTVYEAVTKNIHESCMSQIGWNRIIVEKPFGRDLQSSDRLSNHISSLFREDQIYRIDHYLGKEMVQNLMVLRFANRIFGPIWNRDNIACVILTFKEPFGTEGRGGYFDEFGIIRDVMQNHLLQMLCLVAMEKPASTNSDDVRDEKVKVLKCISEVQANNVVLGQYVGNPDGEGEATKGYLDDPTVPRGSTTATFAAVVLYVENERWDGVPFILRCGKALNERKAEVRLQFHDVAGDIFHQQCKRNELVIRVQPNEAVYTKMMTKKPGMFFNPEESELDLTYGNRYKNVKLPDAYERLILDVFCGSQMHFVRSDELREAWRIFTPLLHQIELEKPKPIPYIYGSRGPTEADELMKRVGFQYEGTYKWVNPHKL", "assay": "human G6PD enzyme inhibitors, dose response, selectivity assay for P. falciparum G6PD inhibitor project, biochemical, fluorescence (AID 504792)", "format": "functional"}, "[10]": {"assay": "HeLa cell cytotoxicity, dose response, cytotoxicity control for MgcRacGAP inhibitor project (AID 624300)", "format": "functional"}, "[11]": {"biological_target": "T2, Rac GTPase-activating protein 1 (Homo sapiens, UniProt Q9H0H5)", "T2 sequence (Q9H0H5 whole entry)": "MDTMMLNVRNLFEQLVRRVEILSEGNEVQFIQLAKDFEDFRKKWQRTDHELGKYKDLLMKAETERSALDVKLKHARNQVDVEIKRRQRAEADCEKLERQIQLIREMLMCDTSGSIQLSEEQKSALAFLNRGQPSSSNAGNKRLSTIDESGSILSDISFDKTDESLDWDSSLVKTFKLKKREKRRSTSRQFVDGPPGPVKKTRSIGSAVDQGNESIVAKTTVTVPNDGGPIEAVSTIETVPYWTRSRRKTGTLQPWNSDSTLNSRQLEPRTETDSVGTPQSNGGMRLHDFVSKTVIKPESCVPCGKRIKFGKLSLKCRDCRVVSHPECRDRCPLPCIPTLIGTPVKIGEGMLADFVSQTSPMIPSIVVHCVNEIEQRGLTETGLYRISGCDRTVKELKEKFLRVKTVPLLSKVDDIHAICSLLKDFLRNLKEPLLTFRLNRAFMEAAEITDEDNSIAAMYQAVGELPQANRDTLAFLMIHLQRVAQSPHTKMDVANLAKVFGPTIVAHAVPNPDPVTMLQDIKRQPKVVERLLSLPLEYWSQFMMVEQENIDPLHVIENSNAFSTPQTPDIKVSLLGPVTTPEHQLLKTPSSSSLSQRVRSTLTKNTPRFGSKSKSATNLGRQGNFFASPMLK", "assay": "MgcRacGAP GTPase-activating activity inhibitors, confirmation, biochemical, ADP Hunter fluorescence, primary and confirmatory (AID 624330)", "format": "functional"}, "Galanin receptor type 3": {"biological_target": "T3, Galanin receptor type 3 (Homo sapiens, UniProt O60755)", "T3 sequence (O60755 whole entry)": "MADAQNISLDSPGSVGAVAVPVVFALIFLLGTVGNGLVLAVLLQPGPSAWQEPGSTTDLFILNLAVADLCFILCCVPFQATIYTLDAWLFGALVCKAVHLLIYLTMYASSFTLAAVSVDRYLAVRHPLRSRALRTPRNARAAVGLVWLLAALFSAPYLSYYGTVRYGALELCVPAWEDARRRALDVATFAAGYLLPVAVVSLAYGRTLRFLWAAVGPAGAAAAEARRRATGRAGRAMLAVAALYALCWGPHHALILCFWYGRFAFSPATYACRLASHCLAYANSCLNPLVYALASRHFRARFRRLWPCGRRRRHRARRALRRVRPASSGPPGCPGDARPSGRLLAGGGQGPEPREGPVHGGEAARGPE", "assay": "Fluorescence-based cell-based primary high throughput dose response assay to identify antagonists of the Galanin Receptor 3 (GalR3).", "format": "functional"}, "cells": {"assay": "cells", "format": "functional, cell-based", "conditions": "HEK-CNG"}, "[12]": {"biological_target": "T4, Ubiquitin-conjugating enzyme E2 N (Homo sapiens, UniProt P61088)", "T4 sequence (P61088 whole entry)": "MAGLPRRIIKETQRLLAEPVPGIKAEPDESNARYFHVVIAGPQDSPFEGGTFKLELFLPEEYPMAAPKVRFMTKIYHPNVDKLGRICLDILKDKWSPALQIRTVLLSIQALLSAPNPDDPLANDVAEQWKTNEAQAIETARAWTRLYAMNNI", "format": "functional"}, "INS1": {"test_system": "INS1", "assay": "beta cell apoptosis inhibitors, cytokine rescue, dose response, luminescence, retest (AID 449756);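 further: cell death triggered by IL-1 beta plus TNF-alpha plus IFN-gamma mixture; protective hits raise ATP signal compared with cytokine alone wells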", "format": "functional, cell-based", "conditions": "Rattus norvegicus"}, "[13]": {"biological_target": "T5, Long-chain-fatty-acid--AMP ligase FadD28 (Mycobacterium tuberculosis, UniProt P9WQ59)", "T5 sequence (P9WQ59 whole entry)": "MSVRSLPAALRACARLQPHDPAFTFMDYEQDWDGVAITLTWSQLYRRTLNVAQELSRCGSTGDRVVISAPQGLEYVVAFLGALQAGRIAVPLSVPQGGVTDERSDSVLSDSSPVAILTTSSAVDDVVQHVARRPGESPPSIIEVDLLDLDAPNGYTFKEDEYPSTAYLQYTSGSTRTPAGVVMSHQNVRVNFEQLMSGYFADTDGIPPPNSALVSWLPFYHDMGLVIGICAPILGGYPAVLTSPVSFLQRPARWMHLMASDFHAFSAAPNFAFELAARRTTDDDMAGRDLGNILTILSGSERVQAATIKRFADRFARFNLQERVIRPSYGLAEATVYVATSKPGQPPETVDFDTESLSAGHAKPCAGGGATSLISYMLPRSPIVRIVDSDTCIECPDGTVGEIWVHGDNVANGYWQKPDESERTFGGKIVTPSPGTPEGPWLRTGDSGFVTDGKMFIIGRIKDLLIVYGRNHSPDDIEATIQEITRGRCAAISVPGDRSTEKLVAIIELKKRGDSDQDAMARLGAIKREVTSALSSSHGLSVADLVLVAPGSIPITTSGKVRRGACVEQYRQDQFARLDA", "assay": "Fluorescence polarization aasay to screen for inhibitors that compete for the binding of FadD28 to a bisubstrate Measured in Biochemical System Using Plate Reader - 2147-01_Inhibitor_Dose_CherryPick_Activity.", "format": "functional, Mycobacterium tuberculosis H37Rv"}},
  "note": "Activity calls are given as the source filed them.",
  "data": [
    {"smiles": "CC1(C)C=Cc2c(ccc3c2OC[C@H](c2ccc(O)cc2O)C3)O1", "values": [
      {"measurement": "AC50", "setting": "[1]", "result": "3.16 µM (active)"},
      {"measurement": "AC50", "setting": "[2]", "result": "7.45 µM (active)"},
      {"measurement": "EC50", "setting": "Insulin-degrading enzyme [3]", "result": "> 54.7 µM (inactive)"},
      {"measurement": "EC50", "setting": "Insulin-degrading enzyme [4]", "result": "> 54.7 µM (inactive)"},
      {"measurement": "IC50", "setting": "HEK293 [5]", "result": "22.1 µM (inactive)"},
      {"measurement": "EC50", "setting": "HEK293 [6]", "result": "> 54.7 µM (inactive)"},
      {"measurement": "IC50", "setting": "[7]", "result": "19.5 µM (inactive)"},
      {"measurement": "IC50", "setting": "[8]", "result": "> 69.5 µM (inactive)"}
    ]},
    {"smiles": "CCOC(=O)/C=C/CN(C(=O)OC(C)(C)C)S(=O)(=O)N1CC=CC1", "values": [
      {"measurement": "EC50", "setting": "Insulin-degrading enzyme [3]", "result": "> 54.7 µM (inactive)"},
      {"measurement": "EC50", "setting": "Insulin-degrading enzyme [4]", "result": "> 54.7 µM (inactive)"},
      {"measurement": "IC50", "setting": "HEK293 [5]", "result": "> 89.2 µM (inactive)"},
      {"measurement": "EC50", "setting": "HEK293 [6]", "result": "> 55.9 µM (inactive)"}
    ]},
    {"smiles": "COc1cccc(CNc2ccc3[nH]c(O)nc3c2)c1OCc1ccccc1Cl", "values": [
      {"measurement": "IC50", "setting": "[9]", "result": "> 80 µM (inactive)"},
      {"measurement": "CC50", "setting": "[10]", "result": "100 µM (active)"},
      {"measurement": "IC50", "setting": "[11]", "result": "69 µM (active)"}
    ]},
    {"smiles": "O=[N+]([O-])c1[nH]c2nc(O)nc-2cc1Cl", "values": [
      {"measurement": "IC50", "setting": "Galanin receptor type 3", "result": "16.7 µM (inactive)"},
      {"measurement": "EC50", "setting": "cells", "result": "> 29.9 µM (inactive)"}
    ]},
    {"smiles": "COC(=O)C1=C(C)N(Cc2ccccc2)C(NCc2cccc(Cl)c2)=N[C@H]1c1cccc(F)c1", "values": [
      {"measurement": "AC50", "setting": "[1]", "result": "3.48 µM (active)"},
      {"measurement": "IC50", "setting": "[12]", "result": "> 20 µM (inactive)"},
      {"measurement": "EC50", "setting": "Insulin-degrading enzyme [3]", "result": "> 54.7 µM (inactive)"},
      {"measurement": "EC50", "setting": "Insulin-degrading enzyme [4]", "result": "25.2 µM (inactive)"},
      {"measurement": "AC50", "setting": "INS1", "result": "7.03 µM (active)"},
      {"measurement": "IC50", "setting": "HEK293 [5]", "result": "12.1 µM (inactive)"},
      {"measurement": "EC50", "setting": "HEK293 [6]", "result": "> 56 µM (inactive)"}
    ]},
    {"smiles": "Cc1ccc(NC(=O)CNc2ccccc2N2CCCC2=O)cc1S(=O)(=O)N1CCCCC1", "values": [
      {"measurement": "AC50", "setting": "[13]", "result": "48.3 µM (active)"}
    ]}
  ]
}
